Read-outs that look alike come from different tables or passages of the source.
Legend:
bladder = test: animal or person; conditions: Rattus norvegicus, po, read-out: Contraction interval
Method: Male SD strain rats (200-300 g) were used as test animals. Each animal was anesthetized by intraperitoneally administering 50 mg/kg Nembutal. The hair on the abdomen, the thigh, and the back of the neck was shaved, followed by disinfection with 70% ethanol. The left femoral artery of the rat was exposed by incising the thigh for the insertion of a catheter into the femoral artery. A catheter filled with physiological saline containing heparin (1000 units/ml) was introduced approximately 2-3 cm into the artery so that its tip resided in the abdominal artery. The distal end of the catheter was exteriorized at the nape of the neck, sealed, and fixed on the skin tightly. A bladder catheter was implanted according to the method of Yaksh, et al., [Am. J. Physiol., vol.251, R1177-1185 (1986)]. The bladder was exposed through a midline abdominal incision. The bladder dome was given a small incision to make a small hole. A catheter filled with physiological saline was placed into the bladder and secured with a silk ligature. The other end of the catheter was exteriorized at the nape of the neck after being passed under the skin using a trocar. The exposed end of the catheter was sealed and fixed on the skin tightly. The abdominal muscles and skin were sutured, and the test animal was recovered from anesthesia.
The rat was weighed 24-48 hours after the operation. Each rat was placed in a Bollman cage (NATSUME SEISAKUSHO), and the test was done under partial restraint. The arterial catheter was connected to a pressure transducer (NIHON KODEN DX-300) used for the measurement of blood pressure. The bladder catheter was connected to a sylinge pump for physiological saline infusion and to a pressure transducer with PE50 tubing and a three-way stop-cock. Intravesical physiological saline infusion (0.05 ml/minute) was started and continued during the test. The changes of blood pressure, heart rate, and intravesical pressure were recorded with a polygraph (NIHON KODEN). The test animal was allowed to equilibration (for ca. 60-120 minutes) until its micturition pattern became constant. At this point, a basal value of each test parameter was recorded, and the rat was compulsorily given a test compound (in 0.3% carboxymethyl cellulose-physiological saline) at a dose of 1 mg/kg (body weight) by oral administration. […] As a control compound, cromakalim was used. The contraction interval, the systemic blood pressure, and the heart rate were measured for 5 hours after the administration of the compound at one-hour intervals and were expressed as the relative values based on the pre-administration values which were regarded as 100.

[1] = test system: detrusor muscle (isolated urinary bladder strips); test: Relaxation of rhythmic contraction induced by 15 mmol/l KCl in isolated urinary bladder strips (Test Example 2); parameters: species or system guinea pig (male albino Hartley); conditions: Cavia porcellus; KCl 15 mmol/l; cumulative, contact time 15-30 minutes; 50% relaxant of maximum response
Text: (§1) The activity of Compounds (I) as therapeutic agents for pollakiuria and urinary incontinence is described below. In the following Test Examples 1 and 2, IC50 value was defined as the concentration at which a test compound produces 50% relaxant of maximum response of detrusor muscle.
(§2) Male albino Hartley guinea pigs (350-550 g) were used as test animals. Each animal was exsanguinated to death under sodium pentobarbital anesthesia. The lower abdominal cavity was opened and its bladder was positioned. The connective tissue and the fat tissue around the bladder were removed, and the bladder was washed. After bilateral pelvic nerves on the surface of the abdominal side of the bladder were dissected, the bladder was taken out on the entrance of ureter. The bladder was washed with a Krebs-Henseleit buffer [composition (mM): NaCl 118, KCl 4.7, MgSO4 1.2, KH2 PO4 1.2, CaCl2 2.5, NaHCO3 25, and D-glucose 11.1], and then put on a gauze patch soaked in the buffer in a Petri dish. The dome and the trigone of the bladder were cut away. The back of the bladder was cut vertically in the middle with scissors, and the bladder was put flat on the gauze patch. The mucosa of the bladder was removed. The back of the bladder was cut vertically to get 6 strips which are ca. 2.0 mm wide and ca. 10 mm long.
(§3) Each strip was tied at one end to plastic rod and placed in a 20 ml organ bath containing a Krebs-Henseleit solution which was maintained at 37° C. and bubbled vigorously with a gas mixture of 5% CO2 and 95% O2. The pH of the solution was adjusted to about 7.4. The other end of the strip was tied via silk thread to a force displacement transducer (NIHON KODEN TB-611T). The transducer was connected to a polygraph (NIHON KODEN AP-621G), and the changes in tension were recorded on a recorder (YOKOGAWA type 3066). The polygraph was graduated by 0.5 g/cm.
Isolated urinary bladder strips were prepared in the same manner as in Test Example 1, and the tension of the preparation was measured. After the tension of the tissue was adjusted to be a steady state at 1 g, 15 mmol/l KCl was applied. After the rhythmic contraction was confirmed to appear by KCl, the tissue was washed. Then, 15 mmol/l KCl was applied again. After the rhythmic contraction induced by KCl became constant, a test compound was applied by the cumulative method (half-logarithmic increment). The contact time at each concentration was 15-30 minutes. The activity of the compound was expressed as the maximum relaxation rate (%) against the tension induced by the agonist.

[2] = test system: detrusor muscle (isolated urinary bladder strips); test: Relaxation of contraction induced by 50 mmol/l KCl in isolated urinary bladder strips (Test Example 1); parameters: species or system guinea pig (male albino Hartley); conditions: Cavia porcellus, 0.5 h; KCl 50 mmol/l; cumulative, contact time 30 minutes; 50% relaxant of maximum response
Text: as §1, §2, §3
After the tissue was incubated in the buffer for 15 minutes without preloading, tension was added thereto for about one hour. The preloading tension added was 1.5 g and it was relaxed to about 1 g. The strips were allowed to equilibrate until their contractions became constant and tension was adjusted to 1 g. After this equilibrium period, 50 mmol/l KCl (the whole content in the bath) was added, and the tissue was washed 10 minutes later. KCl was added to the tissue at intervals of 30 minutes, followed by washing 10 minutes later, and KCl was applied repeatedly until the developed tension induced by KCl becomes constant. When the tissue was confirmed to contract constantly by the application of KCl and relax to the steady state after washing, 50 mmol/l KCl was applied again. After the tissue reached the steady state and the base line was obtained, a test compound was applied by the cumulative method (half-logarithmic increment). The contact time at each concentration was 30 minutes. The activity of the compound was expressed as the maximum relaxation rate (%) against the tension induced by the agonist.

SMILES	response vs control in vivo at 1 mg/kg (bladder; 1 h) [%]	response vs control in vivo at 1 mg/kg (bladder; 2 h) [%]	response vs control in vivo at 1 mg/kg (bladder; 3 h) [%]	response vs control in vivo at 1 mg/kg (bladder; 4 h) [%]	response vs control in vivo at 1 mg/kg (bladder; 5 h) [%]	IC50 [1] [µM]	IC50 [2] [µM]
CC(O)(C(=O)Nc1ccc2c(c1)C(=O)c1sccc1CS2(=O)=O)C(F)(F)F (centres unmarked) [Compound 1-9, 5,5-Dioxo-8-(3,3,3-trifluoro-2-hydroxy-2-methylpropanoylamino)-4,10-dihydrothieno[3,2-c][1]benzothiepin-10-one]	129 ± 23	123 ± 10	143 ± 12	135 ± 16	130 ± 5	> 10	
CC1(C)Oc2ccc(C#N)cc2C(N2CCCC2=O)C1O (centres unmarked) [Cromakalim, cromakalim, reference compound]	124	133	142	133	133		
CC(O)(C(=O)Nc1cccc2c1C(=O)c1ccsc1CS2(=O)=O)C(F)(F)F (centres unmarked) [Compound 1-5, 9,9-Dioxo-5-(3,3,3-trifluoro-2-hydroxy-2-methylpropanoylamino)-4,10-dihydrothieno[2,3-c][1]benzothiepin-4-one]						4	8.7
O=C1c2sccc2CS(=O)(=O)c2cccc(NC(=O)C3CCCO3)c21 (centres unmarked) [Compound 3-9, 5,5-Dioxo-9-(2-tetrahydrofuroylamino)-4,10-dihydrothieno[3,2-c][1]benzothiepin-10-one]	122 ± 7	128 ± 16	129 ± 18	150 ± 19	160 ± 21	> 10	
CC(O)(C(=O)Nc1ccc(F)c2c1C(=O)c1sccc1CS2(=O)=O)C(F)(F)F (centres unmarked) [Compound 1-35, 5,5-Dioxo-6-fluoro-9-(3,3,3-trifluoro-2-hydroxy-2-methylpropanoylamino)-4,10-dihydrothieno[3,2-c][1]benzothiepin-10-one]	115 ± 2	133 ± 12	131 ± 15	152 ± 4	148 ± 3	2.5	
CC(O)(C(=O)Nc1cccc2c1C(=O)c1ccoc1CS2(=O)=O)C(F)(F)F (centres unmarked) [Compound 1-7, 9,9-Dioxo-5-(3,3,3-trifluoro-2-hydroxy-2-methylpropanoylamino)-4,10-dihydrofuro[2,3-c][1]benzothiepin-4-one]	116 ± 9	138 ± 12	156 ± 17	155 ± 16	155 ± 17	> 10	
CC(O)(C(=O)Nc1ccc2c(c1)S(=O)(=O)Cc1ccccc1C2=O)C(F)(F)F (centres unmarked) [Compound 1-4, 5,5-Dioxo-3-(3,3,3-trifluoro-2-hydroxy-2-methylpropanoylamino)-6,11-dihydrodibenzo[b,e]thiepin-11-one]						3.2	4.5
COc1ccc2c(c1)CS(=O)(=O)c1cccc(NC(=O)C(C)(O)C(F)(F)F)c1C2=O (centres unmarked) [Compound 1-24, 5,5-Dioxo-8-methoxy-1-(3,3,3-trifluoro-2-hydroxy-2-methylpropanoylamino)-6,11-dihydrodibenzo[b,e]thiepin-11-one]	140 ± 11	121 ± 17	160 ± 19	169 ± 25	169 ± 25	> 10	
CC(O)(C(=O)Nc1ccc2c(c1)S(=O)(=O)Cc1occc1C2=O)C(F)(F)F (centres unmarked) [Compound 1-8, 9,9-Dioxo-7-(3,3,3-trifluoro-2-hydroxy-2-methylpropanoylamino)-4,10-dihydrofuro[2,3-c][1]benzothiepin-4-one]						7.5	
CC(C)(O)C(=O)Nc1cccc2c1C(=O)c1sccc1CS2(=O)=O [Compound 3-12, 5,5-Dioxo-9-(2-hydroxy-2-methylpropanoylamino)-4,10-dihydrothieno[3,2-c][1]benzothiepin-10-one]	118 ± 18	153 ± 20	152 ± 17	161 ± 26	165 ± 19	> 10	
COc1ccc(NC(=O)C(C)(O)C(F)(F)F)c2c1S(=O)(=O)Cc1ccsc1C2=O (centres unmarked) [Compound 1-28, 5,5-Dioxo-6-methoxy-9-(3,3,3-trifluoro-2-hydroxy-2-methylpropanoylamino)-4,10-dihydrothieno[3,2-c][1]benzothiepin-10-one]	127 ± 10	139 ± 7	133 ± 6	140 ± 3	145 ± 3	> 10	
Cc1ccc(NC(=O)C(C)(O)C(F)(F)F)c2c1S(=O)(=O)Cc1ccsc1C2=O (centres unmarked) [Compound 1-29, 5,5-Dioxo-6-methyl-9-(3,3,3-trifluoro-2-hydroxy-2-methylpropanoylamino)-4,10-dihydrothieno[3,2-c][1]benzothiepin-10-one]						2.4	
CCC(C)(O)C(=O)Nc1cccc2c1C(=O)c1sccc1CS2(=O)=O (centres unmarked) [Compound 3-14, 5,5-Dioxo-9-(2-hydroxy-2-methylbutanoylamino)-4,10-dihydrothieno[3,2-c][1]benzothiepin-10-one]						> 10	
CC(O)(C(=O)Nc1ccc2c(c1)S(=O)(=O)Cc1ccc(F)cc1C2=O)C(F)(F)F (centres unmarked) [Compound 1-22, 5,5-Dioxo-9-fluoro-3-(3,3,3-trifluoro-2-hydroxy-2-methylpropanoylamino)-6,11-dihydrodibenzo[b,e]thiepin-11-one]						6.5	
CC(O)(C(=O)Nc1cccc2c1C(=O)c1cccnc1CS2(=O)=O)C(F)(F)F (centres unmarked) [Compound 1-14, 10,10-Dioxo-6-(3,3,3-trifluoro-2-hydroxy-2-methylpropanoylamino)-5,11-dihydro[1]benzothiepino[3,4-b]pyridin-5-one]						> 10	
CC(O)(C(=O)Nc1ccc(Cl)c2c1C(=O)c1sccc1CS2(=O)=O)C(F)(F)F (centres unmarked) [Compound 1-33, 6-Chloro-5,5-dioxo-9-(3,3,3-trifluoro-2-hydroxy-2-methylpropanoylamino)-4,10-dihydrothieno[3,2-c][1]benzothiepin-10-one]	124 ± 15	137 ± 15	137 ± 4	142 ± 10	148 ± 21	0.7	
CC(O)(C(=O)Nc1cccc2c1C(=O)c1cccc(F)c1CS2(=O)=O)C(F)(F)F (centres unmarked) [Compound 1-19, 5,5-Dioxo-7-fluoro-1-(3,3,3-trifluoro-2-hydroxy-2-methylpropanoylamino)-6,11-dihydrodibenzo[b,e]thiepin-11-one]	114 ± 9	139 ± 7	136 ± 11	145 ± 6	167 ± 15	4.3	

— patent publication US6211227A, “Tricyclic compounds” (Kyowa Hakko Kogyo Co., Ltd., priority 1997, dated 2001)
